Laboratory results: patent US6589963B2, “Heterocyclic compounds and salts thereof and medicinal use of the same” (Kyoto Pharmaceutical Industries, Ltd., priority 1999, dated 2003)

Experiments:
[1] = tested on: male KK-A^y mice; assay: Hypoglycemic action (method A); assay type: in vivo, mouse; conditions: 4 consecutive days, non-fasting, about 24 hours after final administration, vs control group
Method: (§1) The glucose level in the plasma was measured using a commercially available assay kit (glucose CII-test WAKO, Wako Pure Chemical Industries, Ltd.). The mice were grouped (5 mice per group) into a control group and an administration group, such that the mean and the standard deviation of the glucose level in the plasma of each group were nearly the same. Each test compound was suspended or dissolved in 5% gum arabic solution and administered orally to the administration group for 4 consecutive days from the next day. The 5% gum arabic solution was orally administered to the control group. Blood was drawn from the tail vein under a non-fasting state about 24 hours after the final administration and the glucose level in the plasma was measured. The decrease in the plasma glucose level was calculated from the following formula.
Decrease (%) in plasma glucose level=[(mean plasma glucose level of control group−mean plasma glucose level of test compound administration group)/mean plasma glucose level of control group]×100

[2] = tested on: male KK-A^y mice; assay: Hypotriglyceridemic action; assay type: in vivo, mouse; conditions: 4 consecutive days, non-fasting, about 24 hours after final administration, vs control group
Method: as §1, with “triglyceride” for “glucose”, “(triglyceride G-test” for “(glucose CII-test”
Decrease (%) in plasma triglyceride level=[(mean plasma triglyceride level of control group−mean plasma triglyceride level of test compound administration group)/mean plasma triglyceride level of control group]×100

Row | Compound | Decrease (%) in plasma glucose level ([1]; dose 30 mg/kg orally) | Decrease (%) in plasma triglyceride level ([2]; dose 30 mg/kg orally) | Decrease (%) in plasma triglyceride level ([2]; dose 10 mg/kg orally) | Decrease (%) in plasma glucose level ([1]; dose 10 mg/kg orally)
1 | 7-[2-(5-Methyl-2-phenyloxazol-4-yl)ethoxy]-2-(4-pentenoyl)-1,2,3,4-tetrahydroisoquinoline-(3S)-carboxylic acid [Example 44] | 48.0% | 19.1% |  | 
2 | Cc1oc(-c2ccccc2)nc1CCOc1ccc2c(c1)CC(C(=O)O)N(Cc1ccccc1)C2 (racemic) [Example 72, 2-Benzyl-6-[2-(5-methyl-2-phenyloxazol-4-yl)ethoxy]-1,2,3,4-tetrahydroisoquinoline-(3RS)-carboxylic acid] | 15.9% | 24.0% |  | 
3 | CC(=O)N1Cc2cc(OCCc3nc(-c4ccccc4)oc3C)ccc2C[C@H]1C(=O)O [Example 3, 2-Acetyl-7-[2-(5-methyl-2-phenyloxazol-4-yl)ethoxy]-1,2,3,4-tetrahydroisoquinoline-(3S)-carboxylic acid] | 11.8% |  |  | 
4 | Cc1oc(-c2ccccc2)nc1CCOc1ccc2c(c1)CN(C)[C@H](C(=O)O)C2 [Example 4, 2-Methyl-7-[2-(5-methyl-2-phenyloxazol-4-yl)ethoxy]-1,2,3,4-tetrahydroisoquinoline-(3S)-carboxylic acid] |  |  | 14.3% | 
5 | CCCCCCN1Cc2cc(OCCc3nc(-c4ccccc4)oc3C)ccc2C[C@H]1C(=O)O [Example 6] | 12.2% |  |  | 10.7%
6 | Cc1oc(-c2ccccc2)nc1CCOc1ccc2c(c1)CN(CC(C)C)[C@H](C(=O)O)C2 [Example 7, 2-Isobutyl-7-[2-(5-methyl-2-phenyloxazol-4-yl)ethoxy]-1,2,3,4-tetrahydroisoquinoline-(3S)-carboxylic acid] | 17.4% |  |  | 11.4%
7 | Cc1oc(-c2ccccc2)nc1CCOc1ccc2c(c1)CN(CCCc1ccccc1)[C@H](C(=O)O)C2 [Example 9, 7-[2-(5-Methyl-2-phenyloxazol-4-yl)ethoxy]-2-(3-phenylpropyl)-1,2,3,4-tetrahydroisoquinoline-(3S)-carboxylic acid] | 20.3% |  |  | 
8 | CN(CCOc1ccc2c(c1)CN(Cc1ccccc1)[C@H](C(=O)[O-])C2)c1ccccn1.[Na+] [Example 11, Sodium 2-benzyl-7-[2-(N-methyl-N-(pyridin-2-yl)amino)ethoxy]-1,2,3,4-tetrahydroisoquinoline-(3S)-carboxylate] |  |  | 11.2% | 
9 | CCc1ccc(CCOc2ccc3c(c2)CN(Cc2ccccc2)[C@H](C(=O)[O-])C3)nc1.[Na+] [Example 12, Sodium 2-benzyl-7-[2-(5-ethyl-pyridin-2-yl)ethoxy]1,2,3,4-tetrahydroisoquinoline-(3S)-carboxylate] |  |  | 22.9% | 12.0%
10 | Cc1ccc(CN2Cc3cc(OCCc4nc(-c5ccccc5)oc4C)ccc3C[C@H]2C(=O)O)cc1 [Example 18, 2-(4-Methylbenzyl)-7-[2-(5-methyl-2-phenyloxazol-4-yl)ethoxy]-1,2,3,4-tetrahydroisoquinoline-(3S)-carboxylic acid] | 39.7% | 45.5% |  | 
11 | Cc1oc(C(C)C)nc1CCOc1ccc2c(c1)CN(Cc1ccccc1)[C@H](C(=O)O)C2 [Example 34, 2-Benzyl-7-[2-(5-methyl-2-isopropyloxazol-4-yl)ethoxy]-1,2,3,4-tetrahydroisoquinoline-(3S)-carboxylic acid] | 23.5% | 17.3% |  | 
12 | CCCCN1Cc2cc(OCCc3nc(-c4ccccc4)oc3C)ccc2C[C@H]1C(=O)O [Example 35, 2-Butyl-7-[2-(5-methyl-2-phenyloxazol-4-yl)ethoxy]-1,2,3,4-tetrahydroisoquinoline-(3S)-carboxylic acid] | 22.1% | 12.4% |  | 
13 | CC(C)=Cc1nc(CCOc2ccc3c(c2)CN(Cc2ccccc2)[C@H](C(=O)O)C3)c(C)o1 [Example 36, 2-Benzyl-7-{2-[5-methyl-2-(2-methylpropenyl)oxazol-4-yl]ethoxy}-1,2,3,4-tetrahydroisoquinoline-(3S)-carboxylic acid] | 28.4% | 13.7% |  | 
14 | C=CCN1Cc2cc(OCCc3nc(-c4ccccc4)oc3C)ccc2C[C@H]1C(=O)O [Example 38, 2-Allyl-7-[2-(5-methyl-2-phenyloxazol-4-yl)ethoxy]-1,2,3,4-tetrahydroisoquinoline-(3S)-carboxylic acid] | 28.0% | 30.0% |  | 
15 | O=C(O)[C@@H]1Cc2ccc(OCCC3CNc4ccccc43)cc2CN1Cc1ccccc1 (stereo partly drawn) [Example 41, 2-Benzyl-7-[(indolin-3-yl)ethoxy]-1,2,3,4-tetrahydroisoquinoline-(3S)-carboxylic acid] | 11.1% |  |  | 
16 | CCCCC(=O)N1Cc2cc(OCCc3nc(-c4ccccc4)oc3C)ccc2C[C@H]1C(=O)O [Example 43, 7-[2-(5-Methyl-2-phenyloxazol-4-yl)ethoxy]-2-pentanoyl-1,2,3,4-tetrahydroisoquinoline-(3S)-carboxylic acid] | 27.5% | 20.9% |  | 
17 | CC(C)=CC(=O)N1Cc2cc(OCCc3nc(-c4ccccc4)oc3C)ccc2C[C@H]1C(=O)O [Example 45, 2-(3-Methyl-2-butenoyl)-7-[2-(5-methyl-2-phenyloxazol-4-yl)ethoxy]-1,2,3,4-tetrahydroisoquinoline-(3S)-carboxylic acid] | 12.6% |  |  | 
18 | Cc1oc(-c2ccccc2)nc1CCOc1ccc2c(c1)CN(C(=O)CC(C)(C)C)[C@H](C(=O)O)C2 [Example 46, 2-(3,3-Dimethylbutyryl)-7-[2-(5-methyl-2-phenyloxazol-4-yl)ethoxy]-1,2,3,4-tetrahydroisoquinoline-(3S)-carboxylic acid] | 28.6% |  |  | 
19 | Cc1oc(-c2ccccc2)nc1CCOc1ccc2c(c1)CN(Cc1ccccn1)[C@H](C(=O)[O-])C2.[Na+] [Example 48, Sodium 7-[2-(5-methyl-2-phenyloxazol-4-yl)ethoxy]-2-(pyridin-2-ylmethyl)-1,2,3,4-tetrahydroisoquinoline-(3S)-carboxylate] | 16.1% |  |  | 
20 | CC(C)(C)c1nc2cc(COc3ccc4c(c3)CN(Cc3ccccc3)[C@H](C(=O)O)C4)ccc2o1 [Example 53, 2-Benzyl-7-(2-tert-butylbenzoxazol-5-yl)methoxy-1,2,3,4-tetrahydroisoquinoline-(3S)-carboxylic acid] | 13.6% |  |  | 
21 | CC(C)(C)CN1Cc2cc(OCc3ccc4nc(C(C)(C)C)oc4c3)ccc2C[C@H]1C(=O)O [Example 54, 7-(2-tert-Butylbenzoxazol-6-yl)methoxy-2-(2,2-dimethylpropyl)-1,2,3,4-tetrahydroisoquinoline-(3S)-carboxylic acid] | 10.8% |  |  | 
22 | CC(C)c1nc2cc(COc3ccc4c(c3)CN(Cc3ccccc3)[C@H](C(=O)O)C4)ccc2o1 [Example 55, 2-Benzyl-7-(2-isopropylbenzoxazol-5-yl)methoxy-1,2,3,4-tetrahydroisoquinoline-(3S)-carboxylic acid] | 13.9% |  |  | 
23 | Cc1oc(-c2ccccc2)nc1CCOc1ccc2c(c1)CN(Cc1ccncc1)[C@H](C(=O)[O-])C2.[Na+] [Example 56, Sodium 7-[2-(5-methyl-2-phenyloxazol-4-yl)ethoxy]-2-(pyridin-4-ylmethyl)-1,2,3,4-tetrahydroisoquinoline-(3S)-carboxylate] |  | 14.0% |  | 
24 | Cc1oc(C2CC2)nc1CCOc1ccc2c(c1)CN(Cc1ccccc1)[C@H](C(=O)O)C2 [Example 59, 2-Benzyl-7-[2-(2-cyclopropyl-5-methyloxazol-4-yl)ethoxy]-1,2,3,4-tetrahydroisoquinoline-(3S)-carboxylic acid] |  | 13.7% |  | 
25 | O=C(O)[C@@H]1Cc2ccc(OCCc3cc4ccccc4o3)cc2CN1Cc1ccccc1 [Example 67, 7-[2-(Benzofran-2-yl)ethoxy]-2-benzyl-1,2,3,4-tetrahydroisoquinoline-(3S)-carboxylic acid] | 10.6% |  |  | 
26 | COC(=O)CCC(=O)N1Cc2cc(OCCc3nc(-c4ccccc4)oc3C)ccc2C[C@H]1C(=O)O [Example 70, 2-[3-(Methoxycarbonyl)propionyl]-7-[2-(5-methyl-2-phenyloxazol-4-yl)ethoxy]-1,2,3,4-tetrahydroisoquinoline-(3S)-carboxylic acid] | 15.2% |  |  | 
27 | CCOC(=O)CCCN1Cc2cc(OCCc3nc(-c4ccccc4)oc3C)ccc2C[C@H]1C(=O)O [Example 71, 2-[3-(Ethoxycarbonyl)propyl]-7-[2-(5-methyl-2-phenyloxazol-4-yl)ethoxy]-1,2,3,4-tetrahydroisoquinoline-(3S)-carboxylic acid] | 10.5% |  |  | 
